Source: ChEMBL document CHEMBL4406843, “β-Amino acid derivatives as mitochondrial complex III inhibitors of L. donovani: A promising chemotype targeting visceral leishmaniasis” (Eur J Med Chem, 2019)
Active and inactive are the calls of the source. No cut-off for these calls is given here.

Legend:
[1] = Cytotoxicity against African green monkey Vero cells assessed as cell viability at 25 uM by MTT assay relative to control; assay type: cell-based; conditions: chlorocebus sabaeus, read-out: Activity
[2] = Cytotoxicity against African green monkey Vero cells assessed as cell viability at 100 uM by MTT assay relative to control; assay type: cell-based; conditions: chlorocebus sabaeus, read-out: Activity
Leishmania donovani [3] = test: Antileishmanial activity against Leishmania donovani MHOM/IN/80/Dd8 amastigotes harboring luciferase reporter gene infected in mouse J774 cells at 25 uM after 72 hrs by Steady-Glo luminescence assay relative to control; assay type: functional; conditions: MHOM/IN/80/Dd8, J774, 72 h
Leishmania donovani [4] = test: Antileishmanial activity against Leishmania donovani MHOM/IN/80/Dd8 amastigotes harboring luciferase reporter gene infected in mouse J774 cells at 100 uM after 72 hrs by Steady-Glo luminescence assay relative to control; assay type: functional; conditions: MHOM/IN/80/Dd8, J774, 72 h
Leishmania donovani [5] = test: Antileishmanial activity against Leishmania donovani MHOM/IN/80/Dd8 promastigotes harboring luciferase reporter gene assessed as inhibition of viability at 3.12 to 100 uM after 24 to 72 hrs by MTT assay relative to control; assay type: functional
Leishmania donovani [6] = test: Antileishmanial activity against Leishmania donovani MHOM/IN/80/Dd8 amastigotes harboring luciferase reporter gene infected in mouse J774 cells at 3.12 to 100 uM after 48 hrs by Steady-Glo luminescence assay relative to control; assay type: functional
[7] = Cytotoxicity against mouse J774 cells assessed as cell viability up to 100 uM after 72 hrs by MTT assay relative to control; assay type: cell-based; conditions: read-out: Activity
[8] = Cytotoxicity against mouse J774 cells assessed as reduction in cell viability after 72 hrs by MTT assay; assay type: cell-based
[9] = Cytotoxicity against BALB/c mouse splenocytes assessed as cell viability at 100 uM after 72 hrs by MTT assay relative to control; assay type: cell-based, Splenocyte; conditions: read-out: Activity
[10] = Stability in simulated gastric fluid at 10 ug/ml measured after 2 hrs by UPLC analysis relative to control; assay type: ADME; conditions: read-out: Stability
[11] = Stability in mouse liver microsomes assessed as compound remaining after 1 hr in presence of NADPH by UPLC analysis; assay type: ADME, Microsome; conditions: read-out: Stability
[12] = Half life in mouse liver microsomes after 1 hr in presence of NADPH by UPLC analysis; assay type: ADME, Microsome
[13] = Intrinsic clearance in mouse liver microsomes after 1 hr in presence of NADPH by UPLC analysis; assay type: ADME, Microsome
Leishmania donovani [14] = test: (§1) Antileishmanial activity against Leishmania donovani promastigotes infected in BALB/c mouse assessed as reduction in parasite burden in liver at 25 mg/kg, ip administered for 7 days starting at 15 days post-infection and measured after 1 week post last dose Giemsa staining-based assay relative to control; assay type: functional
Leishmania donovani [15] = test: as §1, with “inhibition” for “reduction”, “spleen” for “liver”, “100” for “25”; assay type: functional
Leishmania donovani [16] = test: as §1, with “inhibition” for “reduction”, “spleen” for “liver”, “200” for “25”; assay type: functional
Leishmania donovani [17] = test: as §1, with “inhibition” for “reduction”, “200” for “25”; assay type: functional
[18] = Toxicity in BALB/c mouse infected with Leishmania donovani promastigotes assessed as survival at 12.5 to 200 mg/kg, ip administered for 7 days starting at 15 days post-infection; assay type: organism-based; conditions: in vivo
[19] = Toxicity in golden hamster infected with Leishmania donovani amastigotes assessed as effect on survival at 12.5 to 200 mg/kg, ip administered on alternative days for 4 weeks starting at 4 weeks post-infection; assay type: organism-based, Mesocricetus auratus; conditions: in vivo, 672 h
[20] = Toxicity in BALB/c mouse infected with Leishmania donovani promastigotes assessed as serum ALT level at 50 mg/kg , ip measured after 3 to 7 weeks (rvb = 31 IU/L); assay type: organism-based; conditions: in vivo
[21] = Toxicity in golden hamster infected with Leishmania donovani amastigotes assessed as reduction in serum ALT level at 50 mg/kg , ip and measured after 10 weeks post infection (reference value: 216 U/L); assay type: organism-based, Mesocricetus auratus; conditions: in vivo, 1680 h
J774 [22] = test: Immunostimulatory activity in mouse J774 cells infected with Leishmania donovani promastigotes assessed as increase in IL-2 cytokine production at 50 uM after 48 hrs by ELISA; assay type: functional, cell-based
J774 [23] = test: Immunostimulatory activity in mouse J774 cells infected with Leishmania donovani promastigotes assessed as reduction in TGF-beta cytokine production at 50 uM after 48 hrs by ELISA; assay type: functional, cell-based
Mus musculus = test: Immunostimulatory activity in BALB/c mouse infected with Leishmania donovani promastigotes assessed as induction of IL-2 cytokine production at 50 mg/kg administered for 5 days starting at 15 days post infection and measured after 3 to 7 weeks by ELISA; assay type: functional, organism-based
Leishmania donovani [24] = test: Induction of plasma membrane permeabilization in Leishmania donovani promastigotes assessed as increase in fluorescence at 50 uM after 2 hrs by SYTOX green-based flow cytometry analysis relative to control; assay type: functional
Leishmania donovani [25] = test: Induction of mitochondrial dysfunction in Leishmania donovani promastigotes assessed as reduction in mitochondrial membrane potential at 50 uM after 3 hrs by JC-1 staining-based flow cytometric analysis (reference value: 7.73%); assay type: functional; parameters: scale not given: the % may be the effect or the level left
Leishmania donovani [26] = test: Induction of mitochondrial dysfunction in Leishmania donovani promastigotes assessed as reduction in mitochondrial membrane potential at 50 uM after 12 hrs by JC-1 staining-based flow cytometric analysis (reference value: 7.73%); assay type: functional; parameters: scale not given: the % may be the effect or the level left
Leishmania donovani [27] = test: Induction of apoptosis in Leishmania donovani promastigotes assessed as early apoptotic cells at 50 uM after 24 hrs by Annexin-V/propidium iodide staining based flow cytometric method (reference value: 5.79%); assay type: functional
Leishmania donovani [28] = test: Induction of apoptosis in Leishmania donovani promastigotes assessed as early apoptotic cells at 50 uM after 48 hrs by Annexin-V/propidium iodide staining based flow cytometric method (reference value: 5.79%); assay type: functional
Leishmania donovani [29] = test: Induction of apoptosis in Leishmania donovani promastigotes assessed as necrotic cells at 50 uM after 48 hrs by Annexin-V/propidium iodide staining based flow cytometric method (reference value: 0.06%); assay type: functional
Leishmania donovani [30] = test: Induction of bio-energetic collapse in Leishmania donovani promastigotes assessed as reduction in ATP level at 50 uM after 48 hrs by bioluminescence based method relative to control; assay type: functional; parameters: scale not given: the % may be the effect or the level left
Leishmania donovani [31] = test: Induction of ROS generation in Leishmania donovani promastigotes at 50 uM after 12 hrs by H2DCFDA probe based flow cytometry (reference value: 1.97%); assay type: functional
Leishmania donovani [32] = test: Induction of ROS generation in Leishmania donovani promastigotes at 50 uM after 24 hrs by H2DCFDA probe based flow cytometry (reference value: 1.97%); assay type: functional
[33] = Elimination rate constant in BALB/c mouse at 50 mg/kg, ip by HPLC analysis; assay type: ADME, organism-based; conditions: in vivo
[34] = Cmax in BALB/c mouse at 50 mg/kg, ip by HPLC analysis; assay type: ADME, organism-based; parameters: dose 50 mg/kg, route intraperitoneal; conditions: in vivo
[35] = Volume of distribution in BALB/c mouse at 50 mg/kg, ip by HPLC analysis; assay type: ADME, organism-based; conditions: in vivo
[36] = Clearance in BALB/c mouse at 50 mg/kg, ip by HPLC analysis; assay type: ADME, organism-based; conditions: in vivo
[37] = Toxicity in BALB/c mouse infected with Leishmania donovani promastigotes assessed as effect on body weight at 12.5 to 200 mg/kg, ip administered for 7 days starting at 15 days post-infection; assay type: organism-based; conditions: in vivo

CCOC(=O)C(C(=O)c1ccc(OC)cc1)C(NC(C)=O)c1cccc2ccccc12 (stereo not drawn)
viability at 25 µM [1]: 99.2% | viability at 100 µM [2]: 95.5% | inhibition at 25 µM (Leishmania donovani [3]): 64.1% | inhibition at 100 µM (Leishmania donovani [4]): 95.9% | inhibition (INH) (Leishmania donovani [5]): 95.4% | inhibition (INH) (Leishmania donovani [6]): >92% | viability at 72 h [7]: > 93% | CC50 at 72 h [8]: > 350 µM | viability at 72 h, 100 µM [9]: > 90.2% | remaining at 2 h, 10 ug/ml [10]: 81.9% | remaining at 1 h [11]: 86.9% | half-life [12]: 5.22 h | CLH [13]: 15 µL/min/mg | inhibition in vivo at 25 mg/kg (Leishmania donovani [14]): 67.6% | inhibition in vivo at 100 mg/kg (Leishmania donovani [15]): 92.8% | inhibition in vivo at 200 mg/kg (Leishmania donovani [16]): 93.1% | inhibition in vivo at 200 mg/kg (Leishmania donovani [17]): 92.1% | Activity [18]: Non-Toxic | Activity [19]: Non-Toxic | Activity [20]: 17 to 177 IU/L | Activity [21]: 166 IU/L | Activity (J774 [22]): inactive | Activity (J774 [23]): inactive | Activity (Mus musculus): inactive | Activity (Leishmania donovani [24]): 3.1% | Activity (Leishmania donovani [25]): 8.62% | Activity (Leishmania donovani [26]): 37.26% | Activity (Leishmania donovani [27]): 8.56% | Activity (Leishmania donovani [28]): 17.8% | Activity (Leishmania donovani [29]): 0.11% | Activity (Leishmania donovani [30]): >67% | Activity (Leishmania donovani [31]): 50.35% | Activity (Leishmania donovani [32]): 85.54% | k el [33]: 3.89e-05 s⁻¹ | Cmax [34]: 2080 ng/mL | Vd [35]: 301.51 L/kg | CL/F [36]: 664 mL/min/kg | Activity [37]: Non-Toxic
